Data set [1] relates to bovine airway smooth muscle cells. In kind it is cell-based. As for the experimental part:
(§1) Cell counts and cytotoxicity are assessed by tetrazolium salt reduction (MTT) […] assay in parallel experiments. Millipore filtered MTT (5 mg/ml, Sigma Chemical Co., St Louis, Mo.) dissolved in phosphate buffered saline (PBS, pH 7.2) is added to the microtiter wells (10 μl/well, 20 μl/16 mm well) at the end of the experimental period. After incubating at 37° C. for 4 h, media is removed from the microtiter wells and acidified with 0.04 M HCl. 2-propane/isopropanol is added to the wells at 200 μl/well or 400 μl/16 mm well for human airway smooth muscle cells. The plates are left at room temperature for 30 min and optical density is obtained by an ELISA reader (EL340 Microplate, Bio-Tek instruments, Winooski, Vt.) at 570 nm wave length. The results obtained by MTT assay correlate well with the viable cell counts obtained by the Trypan blue method using hemocytometer (Sigma cell count instruction manual). Cytotoxicity also is measured by LDH assays (Sigma). Release of LDH greater than 5% is considered cytotoxic.
Antisense human airway smooth muscle cell mannose receptor morpholino DNA oligonucleotides (M-oligos, 25 mer, 5 μM) delivered by the scrape method inhibited b hexosaminidase-induced mitogenesis in bovine ASMC by 37% compared to no inhibition by sense M-oligos (data not shown). […]

Data set [2] has as its system human airway smooth muscle cells. The experiment in a line: Mitogenic effect of growth factors in human airway smooth muscle cells (MTT). In kind it is cell-based. Particulars: for mitogenic response after repeated passages: human ASMC of the same batch, p10. As for the experimental part: as §1
[…] Cells were stimulated with Hex A (50 nM), PDGF (0.1 nM), EGF (100 nM), bFGF (5 nM), thrombin (Thr, 1 unit/ml), FBS (5% vol/vol), or vehicle (V; PBS for Hex; 0.1% BSA in 4 mM HCl for PDGF; 0.1% BSA for EGF and bFGF; unstimulated for Thr and FBS). Viable cell numbers were assessed by MTT assays after 42 h stimulation. […] Experiments were repeated three times.

Data set [3] shares this test system. Briefly: Hex A-induced mitogenesis in human airway smooth muscle cells (MTT). In kind it is cell-based. Conditions: mannan 0.1-1 mg/ml 30 min before 50 nM Hex A, 42 h, human ASMC. The procedure:
as §1
(§2) Human airway smooth muscle cells in 24-well plates were starved for 18h in medium containing 0.1% FBS. Mannan in concentrations ranging from 0.1-1 mg/ml (Sigma) was added to the cells 30 min prior to the addition of 50 nM Hex A, 0.1 nM PDGF or vehicle (PBS for Hex or 0.1% BSA in 4 mM HCl for PDGF). Viable cell numbers were assessed by MTT assays after 42h stimulation. […]

The test system of data set [4] is bovine airway smooth muscle cells. Briefly: Hex A-induced mitogenesis in bovine airway smooth muscle cells. In kind it is cell-based. Conditions: bovine ASMC. The procedure: Measurement of ^3H-thymidine incorporation as an assessment of the rate of DNA synthesis is performed as described previously (Lew et al., 1994) with a modification. After the cells reach confluency and contact-inhibited in microtiter wells (16 mm wells for human airway smooth muscle cells), the medium is replaced with medium M199 (Cellgro, Mediatech, Washington D.C.) or SmBM (for huASMC) containing 0.1% vol/vol fetal bovine serum (FBS, Hyclone Lab. Inc., Logan, Utah) 48 h before exposure to test substances. ^3H-thymidine (0.5 μCi/well or 2.5 μC/16 mm well, sp act 10 Ci/mmol, Amersham Corp., Arlington Heights, Ill.) is added to the cells 18 h after the addition of test substances and cells are harvested 18 h later. Radioactivity is quantified in a liquid scintillation counter (2000 CA; Packard Instrument Co., Downers Grove, Ill.). Experiments are performed in quadruplicate and repeated 3 times.
Mannan, a polymer of mannose, is a specific mannose receptor blocker.

In data set [5] the test system is human airway smooth muscle cells. Briefly: PDGF-induced mitogenesis in human airway smooth muscle cells (MTT). In kind it is cell-based. Particulars: mannan 0.1-1 mg/ml 30 min before 0.1 nM PDGF, 42 h, human ASMC. The procedure:
as §1, §2

Data set [6] deals with TNFα secretion, Hex secretion in BAL fluids. Briefly: TNFα and Hex secretion in BAL fluids, OVA-sensitized murine model. In kind it is in vivo, mouse. Particulars: aerosolized mannan pretreatment, day 31. The procedure: The activities of Hex are determined as previously described (Lew et al., 1991). Samples (50 μl) are incubated with 100 μl of pre-warmed buffered substrate (5 mM p-nitrophenyl-2-deoxy-β-D-glucosaminide in 0.1 M citrate/phoshate buffer, pH 4.5) in 96-well microtirter plates for 1 h at 37° C. After incubation, the reactions are stopped by the addition of 100 μl of 0.5 M boric acid/NaOH buffer, pH 10.6. p-nitrophenol released by the hydrolytic activity is quantified spectrophotometrically by using a Biotek ELISA reader at 405 nm wave length. The Beer-Lambert Law and molecular extinction coefficient for p-nitrophenol (E=18,700) are applied to obtain units of specific activity expressed as micromoles of substrate cleaved/h/10^6 cells. Purified Hex (Sigma) is tested in each assay as a positive internal control.
Immediately after measuring MCh responsiveness, animals are anesthetized with Ketamine/Xylazine at 50/50 mg/kg and lungs are lavaged once via tracheal tube with 1 ml phosphate buffered saline (PBS, 37° C.). The broncho alveolar lavage_fluid is analyzed for Hex activity and differential cell count. Hex activity in broncho alveolar lavage_fluids is 262±33 μmoles/hr in immunized mice versus 92±12 in non-immunized mice.
Experiments were performed in quadruplicate and repeated four times.
Histopathology and immunohistology were performed on lungs and airways.

In data set [7] the test system is OVA-sensitized and -challenged mice. The experiment in a line: Histopathology of trachea and lung, OVA-sensitized murine model. In kind it is in vivo, mouse.
Data set [8] deals with OVA-sensitized wild type FVB/N mice.
Protocol: Enhanced pause (Penh) is measured using the software provided by the manufacturer.
Wild type FVB/N mice, ages 6-8 weeks, were immunized with ovalbumin (20 μg in Imject®-Alum, i.p.) on days 0, 14, 21 as described in Example 6. Non-immunized mice received i.p. injection of Alum only. Thirty minutes before each of the three ovalbumin challenges on days 28-30, the mice were pretreated via aerosol with 100 or 300 mg yeast mannan in 2 ml dH2O or 5 EU E. Coli endotoxin (Sigma Chemical Co., St Louis, Mo.) in 2 ml saline. Experiments were performed in quadruplicate and repeated four times.
Measurements of airway hyper-reactivity (AHR) and broncho alveolar lavage were performed on day 31.
Methacholine sensitivity and reactivity were measured by Penh parameter in spontaneously breathing animals on day 31 (FIG. 9).
The test system of data set [9] is naive wild type FVB/N mice. The experiment in a line: Airway hyperreactivity after aerosolized Hex in naive mice (methacholine challenge, Penh). In kind it is in vivo, mouse. Particulars: aerosolized human Hex A 1 mg every other day for 2 weeks, day 15. The procedure:
Six week old FVB/N mice were treated with aerosolized human Hex A (1 mg) or vehicle (PBS) every other day for 2 weeks. On day 15, lung physiology was non-invasively assessed by methacholine (Mch) challenge and changes in pulmonary resistance (pause enhancement, Penh).

Regarding Ethoxylated polyethylenimine [EPEI], the “concentration beyond which the delivery system was cytotoxic” value in [1] is on record as > 3 μl/ml.

On to PDGF [reference compound], for which, in data set [2], the “mitogenic response after repeated passages” value (shortened to “mitogenic response”) is given as “responded poorly”.

For the molecule mannan, the “inhibition of Hex A-induced mitogenesis” value in data set [3] and in data set [4] was “inhibited by mannan in a concentration dependent manner” each time. Also, the “inhibitory effect on PDGF-induced mitogenesis” value in data set [5] was “lack of inhibitory effect”. In data set [6], the “induction of Hex secretion in BAL fluids” value is “did not induce”. In addition, the “inhibition of TNFα secretion in BAL fluids” value in data set [6] was 85-100%. The “trachea histology (H&E): trachealis muscle and epithelial layer” value in data set [7] (aerosolized mannan 300 mg) was “Trachealis muscle has normal appearance and the epithelial layer is intact”. For the same molecule, the “peribronchiolar cellular infiltration (H&E, lung)” value in data set [7] (mannan 300 mg pretreated mouse) is recorded as “marked decrease in peribronchiolar cellular infiltration in 3 out of 4 bronchioles”. For the same molecule, in [8] (aerosol 30 min before each OVA challenge on days 28-30 (mannan 100 or 300 mg, endotoxin 5 EU), measured on day 31), the “effect on OVA-induced airway hyper-reactivity (Penh)” value was “Blocks Airway Hyper-Reactivity”. Besides, in [8] (after the last dose of aerosolized yeast mannan), the “duration of the inhibitory effect” value was “at least four”. In addition, the “general condition of the treated mice” value in data set [8] (mouse, in vivo) was “remained healthy and active”.

Regarding thrombin [reference compound], in data set [2], the “mitogenic response” value is given as “responded poorly”.

B1: Hex A: human placental b hexosaminidase A (Sigma), lysosomal hydrolase, mannosyl-rich ligand of ASM-MR (protein)
chain 1: TLEKNVLVVSVVTPGCNQLPTLESVENYTLTINDDQCLLLSETVWGALRGLETFSQLVWKSAEGTFFINKTEIEDFPRFPHRGLLLDTSRHYLPLSSILDTLDVMAYNKLNVFHWHLVDDPSFPYESFTFPELMRKGSYNPVTHIYTAQDVKEVIEYARLRGIRVLAEFDTPGHTLSWGPGIPGLLTPCYSGSEPSGTFGPVNPSLNNTYEFMSTFFLEVSSVFPDFYLHLGGDEVDFTCWKSNPEIQDFMRKKGFGEDFKQLESFYIQTLLDIVSSYGKGYVVWQEVFDNKVKIQPDTIIQVWREDIPVNYMKELELVTKAGFRALLSAPWYLNRISYGPDWKDFYIVEPLAFEGTPEQKALVIGGEACMWGEYVDNTNLVPRLWPRAGAVAERLWSNKLTSDLTFAYERLSHFRCELLRRGVQAQPLNVGFCEQEFEQT
chain 2: TQVQQLLVSITLQSECDAFPNISSDESYTLLVKEPVAVLKANRVWGALRGLETFSQLVYQDSYGTFTINESTIIDSPRFSHRGILIDTSRHYLPVKIILKTLDAMAFNKFNVLHWHIVDDQSFPYQSITFPELSNKGSYSLSHVYTPNDVRMVIEYARLRGIRVLPEFDTPGHTLSWGKGQKDLLTPCYSRQNKLDSFGPINPTLNTTYSFLTTFFKEISEVFPDQFIHLGGDEVEFKCWESNPKIQDFMRQKGFGTDFKKLESFYIQKVLDIIATINKGSIVWQEVFDDKAKLAPGTIVEVWKDSAYPEELSRVTASGFPVILSAPWYLDLISYGQDWRKYYKVEPLDFGGTQKQKQLFIGGEACLWGEYVDATNLTPRLWPRASAVGERLWSSKDVRDMDDAYDRLTRHRCRMVERGIAAQPLYAGYCNHENM
Consider B1, for which the “airway hyperreactivity (Penh, methacholine challenge)” value in data set [9] is “increased airway hyperreactivity”. The “mitogenic effect (viable cell numbers, MTT)” value in [2] (Hex A 50 nM, 42 h stimulation, serum-starved cells, passage #5) is “comparable to that of PDGF and fetal bovine serum”. Also, the “mitogenic response” value in [2] was “responded poorly”.

Source of the values: US7582620B2, “Use of mannan from saccharomyces cerevisiae for the treatment of asthma” (The University of Tennessee Foundation, priority 2003, dated 2009).
